Test results taken from paper PMC3115021, “Dynamics of Cdk1 Substrate Specificity during the Cell Cycle” (Molecular Cell, 2011).

Legend:
[1] = biological target: Cln1-Cdk1 (Saccharomyces cerevisiae, UniProt P00546+P20437); assay: Peptide kinetics with the model substrate (data not shown); assay type: biochemical
Method: (§1) The four major cyclin-Cdk1 complexes used in our experiments seem sufficient for describing
(§2) the general dynamic changes of Cdk1 specificity during the cell cycle, as the rest of the cyclins,
(§3) Clb1 and Clb4 (Grandin and Reed, 1993) as well as Cln3 and Clb6 (Cross et al., 2002; Tyers et
(§4) al., 1993) are less abundant and therefore minor contributors to the total concentration of
(§5) activated Cdk1, and most likely would not yield significant changes to the general model. In
(§6) an intermediate KM (210 μM) for the model substrate (data not shown). However, due to poor
(§7) purification yields, this kinase was excluded from detailed analysis. Additionally, the other G1
(§8) towards the peptide substrate (KM > 1 mM, data not shown).
(§9) Our findings have raised an intriguing question of how cyclins can change the specificity
(§10) of the Cdk1 active site, so that its ability to bind and phosphorylate the consensus site motif is
(§11) altered. These cyclin-specific effects could be due to specific conformational changes induced by
(§12) cyclin in the Cdk1 molecule, resulting in altered accessibility and configuration of its active site.
(§13) of Swe1 to phosphorylate different cyclin-Cdk1 complexes at the active site-gating Y19 residue.
(§14) The other gradually changing feature, the relative differences in RXL-dependent docking
(§15) mechanisms among the B-type cyclin-Cdk1s, could also be due to different specific […]

[2] = biological target: T1, Clb4-Cdk1 (Saccharomyces cerevisiae, UniProt P00546+P24871); assay: as above; assay type: biochemical
T1 construct: made in house
Method: as §1, §2, §3, §4, §5, §6, §7, §8, §9, §10, §11, §12, §13, §14, §15

[3] = biological target: T2, Clb2-Cdk1 (Saccharomyces cerevisiae, UniProt P00546+P24869); settings: higher specificity for mitotic Clb2-Cdk1 than S phase Clb5-Cdk1; ref Loog and Morgan, 2005; cited from earlier work
T2 construct: We purified the four cyclin-Cdk1 complexes from yeast; made in house; host or cells: S. cerevisiae strain DOM0077 (gal-CLB2-TAP, sic1 deleted); Cks1 from bacteria
Source text: To study how different cyclins modulate the substrate specificity of Cdk1, we performed a quantitative analysis of yeast Cdk1 specificity in complex with each of four cyclins: the G1/S cyclin Cln2, the S phase triggering cyclin Clb5, the G2/M cyclin Clb3, and the mitotic cyclin Clb2. The cellular levels of these four cyclins peak in sequence over the course of the cell cycle (Figure 1A). We purified the four cyclin-Cdk1 complexes from yeast (Figure 1D) and analyzed their kinetic properties with a commonly used optimal model substrate for Cdk1, a peptide derived from the general substrate Histo ...

Sequence of Cln1-Cdk1 (P00546 2-298 limits assumed): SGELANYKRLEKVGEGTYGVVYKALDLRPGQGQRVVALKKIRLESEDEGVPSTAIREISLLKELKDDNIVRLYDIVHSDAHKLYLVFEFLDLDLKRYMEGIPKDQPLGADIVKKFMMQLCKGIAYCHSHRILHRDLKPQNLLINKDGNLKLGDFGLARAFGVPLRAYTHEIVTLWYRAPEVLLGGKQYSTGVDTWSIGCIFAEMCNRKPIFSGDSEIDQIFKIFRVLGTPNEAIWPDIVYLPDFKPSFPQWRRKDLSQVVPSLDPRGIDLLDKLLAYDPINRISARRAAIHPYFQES
Sequence of Cln1-Cdk1 (P20437 whole entry partner): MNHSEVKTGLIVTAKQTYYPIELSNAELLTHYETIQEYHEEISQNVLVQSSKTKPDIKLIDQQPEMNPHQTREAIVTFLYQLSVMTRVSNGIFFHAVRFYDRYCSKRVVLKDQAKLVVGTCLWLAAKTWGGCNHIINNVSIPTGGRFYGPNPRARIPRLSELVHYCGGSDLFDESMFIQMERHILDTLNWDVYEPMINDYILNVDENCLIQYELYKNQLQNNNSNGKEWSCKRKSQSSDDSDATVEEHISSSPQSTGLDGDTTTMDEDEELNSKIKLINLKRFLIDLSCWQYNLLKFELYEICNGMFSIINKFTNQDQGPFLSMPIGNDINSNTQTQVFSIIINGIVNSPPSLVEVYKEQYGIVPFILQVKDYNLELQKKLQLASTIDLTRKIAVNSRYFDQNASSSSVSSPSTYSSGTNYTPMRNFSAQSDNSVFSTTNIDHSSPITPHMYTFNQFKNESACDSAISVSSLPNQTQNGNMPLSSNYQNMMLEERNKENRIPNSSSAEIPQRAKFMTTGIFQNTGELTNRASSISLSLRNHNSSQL
Sequence of Cln1-Cdk1 (P20486 whole entry partner): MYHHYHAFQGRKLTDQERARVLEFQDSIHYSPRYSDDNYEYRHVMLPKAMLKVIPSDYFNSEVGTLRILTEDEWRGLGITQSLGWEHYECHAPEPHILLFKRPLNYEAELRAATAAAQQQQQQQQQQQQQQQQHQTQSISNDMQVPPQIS
T1 sequence (P00546 2-298 limits assumed): as the sequence (P00546 2-298 limits assumed) above
T1 sequence (P24871 whole entry partner): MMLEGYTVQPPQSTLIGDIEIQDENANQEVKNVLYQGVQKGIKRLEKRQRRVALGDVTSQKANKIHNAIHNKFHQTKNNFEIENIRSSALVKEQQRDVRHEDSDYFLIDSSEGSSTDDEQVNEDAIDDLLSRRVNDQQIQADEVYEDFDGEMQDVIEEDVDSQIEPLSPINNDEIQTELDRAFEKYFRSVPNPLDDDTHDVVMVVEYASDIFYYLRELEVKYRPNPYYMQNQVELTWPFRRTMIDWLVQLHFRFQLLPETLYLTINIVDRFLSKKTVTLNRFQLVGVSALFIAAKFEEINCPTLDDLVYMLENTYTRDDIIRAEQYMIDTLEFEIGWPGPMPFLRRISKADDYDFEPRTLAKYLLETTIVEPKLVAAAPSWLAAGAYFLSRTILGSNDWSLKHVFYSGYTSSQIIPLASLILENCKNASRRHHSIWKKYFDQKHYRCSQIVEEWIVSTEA
T1 sequence (P20486 whole entry partner): as the sequence (P20486 whole entry partner) above
T2 sequence (P00546 2-298 limits assumed): as the sequence (P00546 2-298 limits assumed) above
T2 sequence (P24869 2-491 partner limits assumed): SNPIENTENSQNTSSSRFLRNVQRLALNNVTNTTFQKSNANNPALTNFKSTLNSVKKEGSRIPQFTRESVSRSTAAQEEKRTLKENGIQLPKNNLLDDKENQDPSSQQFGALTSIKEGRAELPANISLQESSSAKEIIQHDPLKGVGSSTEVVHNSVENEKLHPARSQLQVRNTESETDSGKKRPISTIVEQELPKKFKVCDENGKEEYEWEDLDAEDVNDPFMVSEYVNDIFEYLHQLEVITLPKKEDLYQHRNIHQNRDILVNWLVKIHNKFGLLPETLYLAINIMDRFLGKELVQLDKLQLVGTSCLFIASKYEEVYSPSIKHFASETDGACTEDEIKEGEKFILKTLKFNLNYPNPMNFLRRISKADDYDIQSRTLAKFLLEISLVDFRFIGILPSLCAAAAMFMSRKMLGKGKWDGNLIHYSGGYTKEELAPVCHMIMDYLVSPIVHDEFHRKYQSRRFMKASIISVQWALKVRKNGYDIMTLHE
T2 sequence (P20486 whole entry partner): as the sequence (P20486 whole entry partner) above

**Q.** Which Km [1] does the source give for “PKTPKKAKKL [optimal model substrate for Cdk1, a peptide derived from the general substrate Histone H1]” here?
**A.** > 1000 µM

**Q.** What about the Km [2] of the same sequence?
**A.** 210 µM

**Q.** And the “specificity for Clb2-Cdk1 as compared with Clb5-Cdk1” value [3]?
**A.** about 20 fold
